As a reminder, the Ki is the equilibrium dissociation constant of an inhibitor or competing ligand from its target. Higher therefore signals weaker binding. The term Emax denotes the size of the effect at its maximum, as opposed to the concentration needed.

Drawing on ChEMBL document CHEMBL1149421, “Potent 4-arylalkyl-substituted 3-isothiazolol GABA(A) competitive/noncompetitive antagonists: synthesis and pharmacology” (J Med Chem, 2006), this text covers Ki and Emax for ten molecules.

Experiment [1] concerns the target T1, GABA-A receptor; alpha-1/beta-3/gamma-2 (Homo sapiens, UniProt P14867+P18507+P28472).
T1 sequence (P14867 whole entry): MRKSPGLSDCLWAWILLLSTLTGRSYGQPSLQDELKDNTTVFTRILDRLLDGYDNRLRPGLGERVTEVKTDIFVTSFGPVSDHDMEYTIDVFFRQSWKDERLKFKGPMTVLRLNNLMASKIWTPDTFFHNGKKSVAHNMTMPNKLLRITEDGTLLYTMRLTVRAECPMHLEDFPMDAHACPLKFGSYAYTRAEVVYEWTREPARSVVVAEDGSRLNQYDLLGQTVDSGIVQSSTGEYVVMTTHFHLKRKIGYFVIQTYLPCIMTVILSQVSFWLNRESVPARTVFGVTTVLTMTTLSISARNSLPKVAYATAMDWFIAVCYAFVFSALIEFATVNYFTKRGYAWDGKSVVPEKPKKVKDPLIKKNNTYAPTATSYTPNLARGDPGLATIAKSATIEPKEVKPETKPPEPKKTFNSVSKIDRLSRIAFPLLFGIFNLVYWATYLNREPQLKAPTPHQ
T1 sequence (P18507 whole entry): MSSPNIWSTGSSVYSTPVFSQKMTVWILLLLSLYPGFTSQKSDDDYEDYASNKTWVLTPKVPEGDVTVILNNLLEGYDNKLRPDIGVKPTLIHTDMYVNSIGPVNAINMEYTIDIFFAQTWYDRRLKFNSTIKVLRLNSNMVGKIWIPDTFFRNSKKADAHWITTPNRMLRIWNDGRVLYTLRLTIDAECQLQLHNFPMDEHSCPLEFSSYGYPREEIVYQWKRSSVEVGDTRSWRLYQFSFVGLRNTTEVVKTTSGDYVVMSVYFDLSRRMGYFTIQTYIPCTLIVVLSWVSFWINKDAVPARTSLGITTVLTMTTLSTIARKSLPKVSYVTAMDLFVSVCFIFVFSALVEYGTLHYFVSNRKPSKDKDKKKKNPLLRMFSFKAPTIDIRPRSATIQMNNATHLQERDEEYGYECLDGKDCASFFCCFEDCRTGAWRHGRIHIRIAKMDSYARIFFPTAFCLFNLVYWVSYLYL
T1 sequence (P28472 whole entry): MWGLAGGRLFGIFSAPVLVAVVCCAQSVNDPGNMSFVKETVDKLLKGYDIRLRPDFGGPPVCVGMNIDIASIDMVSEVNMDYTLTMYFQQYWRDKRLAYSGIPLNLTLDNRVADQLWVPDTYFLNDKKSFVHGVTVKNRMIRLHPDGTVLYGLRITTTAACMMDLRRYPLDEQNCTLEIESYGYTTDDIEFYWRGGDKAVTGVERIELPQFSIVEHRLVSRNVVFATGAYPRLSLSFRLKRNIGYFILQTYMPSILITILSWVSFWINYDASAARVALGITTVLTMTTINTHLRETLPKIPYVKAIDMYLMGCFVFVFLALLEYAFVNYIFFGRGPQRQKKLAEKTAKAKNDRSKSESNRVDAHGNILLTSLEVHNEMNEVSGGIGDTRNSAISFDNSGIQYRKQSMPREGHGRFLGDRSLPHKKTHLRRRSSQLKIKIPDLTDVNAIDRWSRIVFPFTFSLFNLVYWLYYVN
The experiment is described as follows: Binding affinity at human GABAA alpha-1-beta-3-gamma-2S expressed in Xenopus oocytes by voltage-clamp electrophysiology. The format is functional, cell-based, Oocyte.

The target of experiment [2] is GABA A receptor alpha-5/beta-3/gamma-2 (Rattus norvegicus, UniProt P18508+P19969+P63079). The experiment is described as follows: Displacement of [3H]muscimol from GABAA alpha-1-beta-3-gamma-2S in rat brain membrane. The format is cell membranes. (Loss of bound radioactivity is the signal in a displacement assay; it reports binding, not function.)
Sequence of GABA A receptor alpha-5/beta-3/gamma-2 (P18508 whole entry): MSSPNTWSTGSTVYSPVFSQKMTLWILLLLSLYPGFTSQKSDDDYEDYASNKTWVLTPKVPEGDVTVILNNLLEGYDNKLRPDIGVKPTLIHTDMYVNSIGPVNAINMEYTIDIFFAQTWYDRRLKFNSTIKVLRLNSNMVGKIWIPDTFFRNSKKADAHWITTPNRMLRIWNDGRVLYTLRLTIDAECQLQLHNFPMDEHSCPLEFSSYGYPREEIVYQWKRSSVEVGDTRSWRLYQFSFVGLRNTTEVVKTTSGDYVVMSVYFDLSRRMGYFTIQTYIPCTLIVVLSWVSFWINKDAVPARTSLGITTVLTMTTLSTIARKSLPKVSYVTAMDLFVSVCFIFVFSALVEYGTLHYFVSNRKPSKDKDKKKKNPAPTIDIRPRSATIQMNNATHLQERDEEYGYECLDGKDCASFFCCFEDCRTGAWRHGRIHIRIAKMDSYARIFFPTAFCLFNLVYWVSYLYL
Sequence of GABA A receptor alpha-5/beta-3/gamma-2 (P19969 whole entry): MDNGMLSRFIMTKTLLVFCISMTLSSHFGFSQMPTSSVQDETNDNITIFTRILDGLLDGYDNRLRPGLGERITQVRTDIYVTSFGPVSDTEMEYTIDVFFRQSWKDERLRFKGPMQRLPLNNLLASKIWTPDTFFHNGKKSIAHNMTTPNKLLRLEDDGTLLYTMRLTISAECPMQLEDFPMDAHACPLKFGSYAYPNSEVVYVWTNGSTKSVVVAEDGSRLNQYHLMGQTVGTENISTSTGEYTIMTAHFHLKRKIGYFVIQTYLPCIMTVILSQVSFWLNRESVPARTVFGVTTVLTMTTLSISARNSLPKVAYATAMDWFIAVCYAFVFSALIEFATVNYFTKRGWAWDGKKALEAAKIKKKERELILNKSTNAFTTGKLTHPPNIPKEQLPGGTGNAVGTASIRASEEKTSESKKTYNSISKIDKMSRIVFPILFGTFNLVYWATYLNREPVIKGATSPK
Sequence of GABA A receptor alpha-5/beta-3/gamma-2 (P63079 whole entry): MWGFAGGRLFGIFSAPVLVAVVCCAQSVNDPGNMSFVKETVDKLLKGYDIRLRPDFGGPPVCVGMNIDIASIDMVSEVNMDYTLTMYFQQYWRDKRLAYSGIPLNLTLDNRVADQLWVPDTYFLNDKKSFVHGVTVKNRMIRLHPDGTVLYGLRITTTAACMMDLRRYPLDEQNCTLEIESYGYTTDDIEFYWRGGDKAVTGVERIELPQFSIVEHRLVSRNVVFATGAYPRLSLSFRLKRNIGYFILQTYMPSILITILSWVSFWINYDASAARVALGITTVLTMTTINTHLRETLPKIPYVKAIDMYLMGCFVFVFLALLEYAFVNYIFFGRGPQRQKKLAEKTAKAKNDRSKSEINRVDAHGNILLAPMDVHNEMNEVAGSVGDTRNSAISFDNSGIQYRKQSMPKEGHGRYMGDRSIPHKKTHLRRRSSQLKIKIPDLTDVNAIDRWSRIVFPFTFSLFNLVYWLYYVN
A short description of experiment [3]: Binding affinity at human GABAA alpha-4-beta-3-delta expressed in Xenopus oocytes by voltage-clamp electrophysiology. The format is functional, cell-based. To be noted: oocyte.
Experiment [4] can be described thus: Maximal effect at GABA alpha-4-beta-3-delta expressed in Xenopus oocytes. The format is functional. Particulars: Homo sapiens, Oocyte.
In experiment [5] the target is GABA-A receptor; alpha-1/beta-3/gamma-2 (Homo sapiens) (UniProt P14867+P18507+P28472). The experiment is described as follows: Maximal effect at GABA alpha-1-beta-3-gamma-2S expressed in Xenopus oocytes. The format is functional, cell-based. To be noted: Oocyte.

In the case of `Oc1nsc(C2CCNCC2)c1CCC(c1ccccc1)c1ccccc1`, the values for the inhibitory constant (Ki) in experiment [1], in experiment [2] and in experiment [3] were 1.2 nM, 9.6 nM and 0.35 nM, respectively. Moreover, in experiment [4], the maximal effect (Emax) was 40%.

On to `O=c1[nH]sc(C2CCNCC2)c1CC(c1ccccc1)c1ccccc1`, for which the inhibitory constant (Ki) in experiment [1] is 720 nM; in experiment [2], 388 nM.

With `Oc1nsc(C2CCNCC2)c1Cc1ccc2ccccc2c1`, the Ki in experiment [1] amounted to 22 nM; in experiment [2], 5.2 nM.

For `Cc1c(O)nsc1C1CCNCC1`, the inhibitory constant (Ki) in experiment [1] was 2880 nM; in experiment [2] it was 2200 nM.

In the case of `Oc1cc(C2CCNCC2)sn1`, the inhibitory constant (Ki) in experiment [1] was 25700 nM; in experiment [2], 1870 nM.

`Oc1noc(C2CCNCC2)c1CCC(c1ccccc1)c1ccccc1`: the Ki in experiment [1] worked out at 20 nM; in experiment [2], 68 nM; in experiment [3], 2.3 nM. The molecule also displayed a maximal response (Emax) in experiment [5] of 90%.

Consider `Oc1noc(C2CCNCC2)c1Cc1ccc2ccccc2c1`, for which the inhibitory constant (Ki) came out at 370 nM in experiment [1] and 49 nM in experiment [2].

Turning to `Oc1nsc(C2CCNCC2)c1Cc1ccc2ccccc2c1Br`, the inhibition constant (Ki) in experiment [1] stood at 3 nM; in experiment [2], 1.8 nM.

As to `Oc1nsc(C2CCNCC2)c1Cc1ccccc1`, the values for the Ki in experiment [1] and in experiment [2] were 465 nM and 331 nM, respectively.

As for `CCCc1c(C2CCNCC2)s[nH]c1=O`, the figures for the Ki in experiment [1] and in experiment [2] were 230 nM and 440 nM, respectively.
